# Read-outs that look alike come from different tables or passages of the source.
# Assays:
# Mia PaCa-2 cells = assay: Colony formation assay
# Protocol: Mia PaCa-2 cells were grown in DMEM high glucose, and supplemented with L-glutamine, 10% fetal bovine serum (FBS), and penicillin/streptomycin 1%.
# 250 to 1000 cells were plated in 60 mm dishes. Cells were incubated overnight. At twenty four hours cells were irradiated (3.5 Gy). Cyclopamine 2-10 μMol (Toronto Research Chemicals, TRC, supplier, Canada) was added to culture media, or combination of both. For chemotherapeutic agents, the drug was added to culture media at appropriate concentrations 24 hours after plating. Cultures were incubated for 10-14 days. […] Plating efficiency was normalized compared to control.
# HCT 116 cells = assay: Colony formation assay; type: cell-based, human
# Protocol: (§1) Cells were incubated overnight. […] Cultures were incubated for 10-14 days. […] Plating efficiency was normalized compared to control.
# BxPC-3 cells = assay: Colony formation assay; type: cell-based, human
# Protocol: as §1
# [1] = test system: hedgehog expressing tumor cells; type: cell-based
# Protocol: (§2) Cyclopamine 4 μmol was added to culture media of exponentially growing cells with or without chemotherapeutic agents and irradiated at 12 hours. Cells were trypsinized after 24, 48 or 72 hours. Annexin levels were measured (Annexin V: PE Apoptosis Detection Kit, BD Biosciences Pharningen™, San Jose, Calif.) for 0.5×10^6 freshly detached cells. The presence of membrane permeabilization was monitored by 7-AAD (7-Amino-actinomycinD) staining per manufacturer's protocol. Cells were subsequently analyzed by FACScan (BD FACSCanto™, BD Biosciences Immunocytometry Systems™, San Jose, Calif. with the use of CellQuest software (BD CellQuest™ Pro, BD Biosciences Immunocytometry Systems™, San Jose, Calif. The percentage of apoptotic cells was calculated by scoring for cells positive for either annexin alone (early apoptotic) or both annexin and 7-AAD (late apoptotic). All experiments were done in triplicate.
# [2] = test system: prostate cancer xenografts; conditions: high dose treatment; cited from earlier work
# [3] = test system: murine tumor allografts of medulloblastoma; conditions: mouse, in vivo; cited from earlier work
# [4] = test system: pancreatic cancer cell lines with over-activation of Hh pathway signaling; conditions: cited from earlier work
# Mia PcCa-2 cells = assay: Annexin V-PE apoptosis assay; type: cell-based, human; conditions: 24 hours
# Protocol: as §2
# [5] = test system: hedgehog expressing tumor cells; type: cell-based; remark: listed apart in the source
# [6] = cyclopamine 4 μM and irradiation 3.5 Gy
smiles,measurement,setting,value
N.N.[Cl][Pt][Cl] [Cisplatin],survival (colony formation),Mia PaCa-2 cells; cisplatin 0.8 μM alone,35%
CC1=C2C[C@H]3[C@@H](CC=C4C[C@@H](O)CC[C@@]43C)[C@@H]2CC[C@]12O[C@@H]1C[C@H](C)CN[C@H]1[C@H]2C [cyclopamine],effect on survival following irradiation (in words),HCT 116 cells; cells that do not express the hedgehog pathway,did not have a significant effect on survival
same,survival (colony formation),HCT 116 cells; [6],35%
same,survival (colony formation),HCT 116 cells; cyclopamine 10 μM,74%
same,survival (colony formation),HCT 116 cells; cyclopamine 4 μMol alone,92%
same,survival (colony formation),BxPC-3 cells; [6],7%
same,survival (colony formation),BxPC-3 cells; cyclopamine 10 μM,11%
same,survival (colony formation),BxPC-3 cells; cyclopamine 4 μMol alone,33%
same,survival (colony formation),Mia PaCa-2 cells; cyclopamine 4 μM alone,29%
same,survival (colony formation),Mia PaCa-2 cells; [6],4%
same,survival (colony formation),Mia PaCa-2 cells; cyclopamine 10 μM,7%
same,cytotoxic effect when combined with irradiation (in words),Mia PaCa-2 cells; hedgehog expressing tumor cells,additive cytotoxic effect
same,apoptosis of combination with radiation vs radiation alone (in words),[1]; cyclopamine 4 μMol and radiation 3.5 Gy,not significantly different from radiation alone
same,apoptotic cells (Annexin assay),"[1]; cyclopamine 4 μMol and radiation 3.5 Gy, 24 hours",32.11%
same,apoptotic cells (Annexin assay),"[1]; cyclopamine 4 μMol and radiation 3.5 Gy, 48 hours",28.5%
same,apoptotic cells (Annexin assay),"[1]; cyclopamine 4 μMol and radiation 3.5 Gy, 72 hours",32.3%
same,apoptotic cells (Annexin assay),"[1]; cyclopamine 4 μMol, 24 hours",18.15%
same,apoptotic cells (Annexin assay),"[1]; cyclopamine 4 μMol, 48 hours",29.8%
same,apoptotic cells (Annexin assay),"[1]; cyclopamine 4 μMol, 72 hours",32.9%
same,tumor response (in words),[2],complete regression
same,tumor response (in words),[3],anti-tumor effects
same,apoptosis (in words),[4],induced apoptosis
same,apoptosis (AnnexinV staining),Mia PcCa-2 cells; cyclopamine 4 μMol,18.2%
Nc1ccn([C@@H]2O[C@H](CO)[C@@H](O)C2(F)F)c(=O)n1 [Gemcitabine],survival (colony formation),Mia PaCa-2 cells; gemcitabine 7.3 nM alone,35%
"CC(=O)O[C@H]1C(=O)[C@@]2(C)[C@H]([C@H](OC(=O)c3ccccc3)[C@]3(O)C[C@H](OC(=O)[C@H](O)[C@@H](NC(=O)c4ccccc4)c4ccccc4)C(C)=C1C3(C)C)[C@]1(OC(C)=O)CO[C@@H]1C[C@@H]2O [taxol, Paclitaxel]",survival (colony formation),Mia PaCa-2 cells; taxol 3.5 nM alone,91%
same,apoptosis (AnnexinV staining),Mia PcCa-2 cells; taxol 1.7 nM,64.9%
CC1=C2C(=O)C3C(CC=C4CC(O)CCC43C)C2CCC12OC1CC(C)CNC1C2C (centres unmarked) [jervine],apoptosis of combination with radiation vs radiation alone (in words),[5]; jervine 4 μMol and radiation 3.5 Gy,differ little from radiation alone
same,"apoptosis (Annexin V assay, in words)","[5]; jervine 4 μMol, 24, 48 or 72 hours",induces apoptosis in an increasing percentage of cells in a time-dependent manner
same,cytotoxic effect when combined with irradiation (in words),"[5]; jervine, hedgehog expressing tumor cells",additive cytotoxic effect

# Source: patent US20070281040A1, “COMBINATION THERAPY OF HEDGEHOG INHIBITORS, RADIATION AND CHEMOTHERAPEUTIC AGENTS” (THE UNIVERSITY OF CHICAGO, priority 2004, published 2007)
